Experimental data taken from the CheMixHub ionic liquid set.

Test: xn = mol fraction of the nth substance listed
Details: for electrical conductivity: frequency 3 MHz

CCOS(=O)(=O)[O-].CC[n+]1ccn(C)c1 + CS(C)=O
101 kPa, x1 = 0.3333
Details | viscosity [mPa·s]
288.15 K | 3.92
293.15 K | 3.53
313.15 K | 2.26
348.15 K | 1.27

CC[NH+](CC)CC.O=P([O-])(O)O + CS(C)=O
viscosity [mPa·s], 101 kPa
Details | 298.15 K | 303.15 K | 308.15 K
x2 = 0 | 64.3 | 57.1 | 49.5
x2 = 0.0242 | 61.3 | 54.6 | 47.55
x2 = 0.0507 | 58.2 | 51.7 | 45.51
x2 = 0.1295 | 49.7 | 44.43 | 39.41
x2 = 0.1963 | 43.47 | 38.82 | 34.74
x2 = 0.2596 | 37.82 | 34.13 | 30.67
x2 = 0.3272 | 32.61 | 29.61 | 26.81
x2 = 0.3878 | 28.47 | 26.13 | 23.64
x2 = 0.4494 | 24.64 | 22.94 | 20.75
x2 = 0.5141 | 21.1 | 19.68 | 17.92
x2 = 0.5888 | 17.29 | 16.43 | 14.93
x2 = 0.6387 | 15 | 14.42 | 13.14
x2 = 0.7055 | 12.26 | 11.95 | 10.82
x2 = 0.7616 | 10.18 | 9.98 | 9.01
x2 = 0.8342 | 7.58 | 7.36 | 6.75
x2 = 0.8828 | 5.7 | 5.6 | 5.23
x2 = 0.9272 | 4.37 | 4.24 | 3.84
x2 = 0.9543 | 3.31 | 3.2 | 2.98
x2 = 0.9772 | 2.7 | 2.56 | 2.33

COCCCC[n+]1ccn(C)c1.C[C@@H](O)[C@H](N)C(=O)[O-] + CS(C)=O
viscosity [mPa·s], 100 kPa
Details | x1 = 0.0999 | x1 = 0.2013 | x1 = 0.3006 | x1 = 0.3966 | x1 = 0.5 | x1 = 0.6011 | x1 = 0.7007 | x1 = 0.8001 | x1 = 0.8946 | x1 = 1
288.15 K | 14.24 | 22.21 | 49.3 | 102.2 | 186.6 | 281 | 390 | 560 | 778 | 1030
293.15 K | 12.05 | 18.12 | 37.45 | 74.9 | 132.1 | 192 | 264 | 371 | 503 | 647
298.15 K | 9.53 | 15.09 | 30.16 | 56.54 | 94.4 | 135.2 | 181.5 | 254 | 340 | 424
303.15 K | 7.91 | 12.7 | 24.02 | 43.12 | 69.4 | 97.9 | 131.7 | 179.9 | 234 | 290
308.15 K | 6.67 | 10.74 | 19.82 | 33.94 | 52.97 | 74.4 | 98.5 | 133 | 168.7 | 205
313.15 K | 5.86 | 9.49 | 16.58 | 27.18 | 39.95 | 53.5 | 69.5 | 90.7 | 108.9 | 132.9
318.15 K | 5.2 | 8.31 | 13.95 | 21.6 | 31.33 | 41.63 | 53.64 | 69.5 | 80.3 | 98.5

Cn1cc[n+](CCCN)c1.F[B-](F)(F)F + CS(C)=O
101 kPa
Details | electrical conductivity [S/m] | viscosity [mPa·s]
293.15 K, x1 = 0.2997 | 0.537 | 42.06
293.15 K, x1 = 0.3997 | 0.334 | 58.56
293.15 K, x1 = 0.5999 | 0.151 | 96.13
293.15 K, x1 = 0.8998 | 0.032 | 161.7
298.15 K, x1 = 0.1003 | 1.08 | 10.17
298.15 K, x1 = 1 | 0.026 | 149.6
303.15 K, x1 = 0.2997 | 0.701 | 25.7
303.15 K, x1 = 0.7001 | 0.151 | 74.98
303.15 K, x1 = 0.8109 | 0.096 | 91.64
303.15 K, x1 = 0.8998 | 0.062 | 105.4
308.15 K, x1 = 0.8109 | 0.12 | 75.58
308.15 K, x1 = 1 | 0.055 | 100.2
313.15 K, x1 = 0.1003 | 1.544 | 5.27
313.15 K, x1 = 0.5999 | 0.323 | 40.83
313.15 K, x1 = 0.8109 | 0.15 | 62.45
318.15 K, x1 = 0.3997 | 0.71 | 19.73
318.15 K, x1 = 0.7001 | 0.264 | 42.06
323.15 K, x1 = 0.4998 | 0.576 | 22.1
323.15 K, x1 = 1 | 0.124 | 58.45
328.15 K, x1 = 0.1003 | 2.107 | 3.179
328.15 K, x1 = 0.2 | 1.611 | 6.358
328.15 K, x1 = 0.3997 | 0.922 | 14.21
333.15 K, x1 = 0.2997 | 1.4 | 8.621
333.15 K, x1 = 0.3997 | – | 12.05
338.15 K, x1 = 0.3997 | 1.17 | 10.36
338.15 K, x1 = 0.8109 | 0.381 | 26.89
338.15 K, x1 = 1 | 0.253 | 36.58
343.15 K, x1 = 0.1003 | 2.77 | 2.166
343.15 K, x1 = 0.5999 | 0.772 | 15.34
353.15 K, x1 = 0.3997 | 1.614 | 7.134

CC[n+]1ccn(C)c1.[Br-] + C[NH2+]CCC=C1c2ccccc2CCc2ccccc21.[Cl-] + O
viscosity [mPa·s], 100 kPa
Details | 288.15 K | 298.15 K | 308.15 K | 318.15 K
x2 = 0, x1 = 0.0001802 | 1.141 | 0.911 | 0.744 | 0.627
x2 = 0, x1 = 0.0007203 | 1.147 | 0.916 | 0.748 | 0.632
x2 = 0, x1 = 0.00126 | 1.152 | 0.923 | 0.754 | 0.639

CCCC[N+](CCCC)(CCCC)CCCC.O=S(=O)([O-])O + Cc1ncc(C[n+]2csc(CCO)c2C)c(N)n1.Cl.[Cl-] + O
viscosity [mPa·s], 101 kPa
Details | 298.15 K | 308.15 K | 318.15 K
x2 = 0.0003644, x1 = 0.0003601 | 0.9075 | 0.7352 | 0.6088
x2 = 0.0003645, x1 = 9.006e-05 | 0.9037 | 0.7314 | 0.605
x2 = 0.000365, x1 = 0.0001801 | 0.905 | 0.7327 | 0.6062
x2 = 0.0003656, x1 = 0.0002701 | 0.9062 | 0.7339 | 0.6075
x2 = 0.0006576, x1 = 0.0001801 | 0.9165 | 0.7418 | 0.6142
x2 = 0.0006584, x1 = 9.003e-05 | 0.9153 | 0.7406 | 0.6129
x2 = 0.0006587, x1 = 0.00027 | 0.918 | 0.7431 | 0.615
x2 = 0.0006597, x1 = 0.00036 | 0.919 | 0.7443 | 0.6167
x2 = 0.0009539, x1 = 9.001e-05 | 0.9257 | 0.7497 | 0.6208
x2 = 0.0009554, x1 = 0.00018 | 0.93 | 0.751 | 0.62
x2 = 0.0009567, x1 = 0.0003599 | 0.9295 | 0.7535 | 0.6246
x2 = 0.0009569, x1 = 0.00027 | 0.9283 | 0.7522 | 0.6234
x2 = 0.001253, x1 = 8.998e-05 | 0.9373 | 0.7589 | 0.6288
x2 = 0.001255, x1 = 0.0001799 | 0.9386 | 0.7602 | 0.63
x2 = 0.001255, x1 = 0.0002699 | 0.9398 | 0.7614 | 0.6313
x2 = 0.001257, x1 = 0.0003598 | 0.9411 | 0.7626 | 0.6326
x2 = 0.001555, x1 = 8.995e-05 | 0.9478 | 0.7692 | 0.6355
x2 = 0.001556, x1 = 0.0001799 | 0.9491 | 0.7705 | 0.6368
x2 = 0.001558, x1 = 0.0002698 | 0.95 | 0.7717 | 0.64
x2 = 0.001561, x1 = 0.0003597 | 0.9516 | 0.773 | 0.6393
x2 = 0.001859, x1 = 8.992e-05 | 0.9569 | 0.7784 | 0.6425
x2 = 0.00186, x1 = 0.0001798 | 0.9582 | 0.7797 | 0.6438
x2 = 0.001863, x1 = 0.0002697 | 0.9594 | 0.7809 | 0.6451
x2 = 0.001866, x1 = 0.0003596 | 0.9607 | 0.7822 | 0.6464

C[NH+](C)C.O=S(=O)([N-]S(=O)(=O)C(F)(F)F)C(F)(F)F + N#CCCCC#N
101 kPa, x1 = 0.2167
Details | viscosity [mPa·s]
288 K | 15.76
298 K | 11.43
318 K | 6.747
353 K | 3.452

CC(=O)[O-].CN1CCCN2CCC[NH+]=C12 + O
101.3 kPa
Details | viscosity [mPa·s]
278.2 K, x1 = 0.405 | 1800
283.2 K, x1 = 0.103 | 33
283.2 K, x1 = 0.206 | 204
283.2 K, x1 = 0.494 | 1496
283.2 K, x1 = 0.604 | 1825
293.2 K, x1 = 0.405 | 378
298.2 K, x1 = 0.301 | 144.9
298.2 K, x1 = 0.494 | 339.1
303.2 K, x1 = 0.301 | 99.8
303.2 K, x1 = 0.604 | 259.2
308.2 K, x1 = 0.206 | 32.5
308.2 K, x1 = 0.301 | 70.9
313.2 K, x1 = 0.301 | 51.8
313.2 K, x1 = 0.494 | 109
318.2 K, x1 = 0.301 | 39.02
318.2 K, x1 = 0.494 | 79.4
323.2 K, x1 = 0.604 | 66.33
333.2 K, x1 = 0.206 | 10.12
338.2 K, x1 = 0.494 | 28.19
343.2 K, x1 = 0.103 | 2.76
353.2 K, x1 = 0.301 | 8.98
358.2 K, x1 = 0.103 | 1.97
358.2 K, x1 = 0.206 | 4.58
358.2 K, x1 = 0.604 | 14.29
363.2 K, x1 = 0.604 | 12.16
368.2 K, x1 = 0.103 | 1.62
368.2 K, x1 = 0.604 | 10.46
373.2 K, x1 = 0.103 | 1.5
373.2 K, x1 = 0.301 | 5.14
373.2 K, x1 = 0.604 | 9.11

CCCOCCn1cc[n+](C)c1.O=S(=O)([N-]S(=O)(=O)C(F)(F)F)C(F)(F)F + O
101 kPa, x1 = 0.8306
Details | viscosity [mPa·s]
283 K | 78.3
298.1 K | 38.7
